Assay results published in patent publication US11401286B2 (Tetra Discovery Partners, LLC, priority 2012, dated 2022).
Where a name gives a salt, the structure may show the parent alone. Read-outs that look alike come from different tables or passages of the source.

Molecular target: PDE4D7 (Homo sapiens (Human), UniProt Q08499)
[1] = read-out: PDE4D7 IC50, PDE4D7 without asterisk

PDE4D7, sequence (Q08499 other isoform, or with tags, fused parts or gaps): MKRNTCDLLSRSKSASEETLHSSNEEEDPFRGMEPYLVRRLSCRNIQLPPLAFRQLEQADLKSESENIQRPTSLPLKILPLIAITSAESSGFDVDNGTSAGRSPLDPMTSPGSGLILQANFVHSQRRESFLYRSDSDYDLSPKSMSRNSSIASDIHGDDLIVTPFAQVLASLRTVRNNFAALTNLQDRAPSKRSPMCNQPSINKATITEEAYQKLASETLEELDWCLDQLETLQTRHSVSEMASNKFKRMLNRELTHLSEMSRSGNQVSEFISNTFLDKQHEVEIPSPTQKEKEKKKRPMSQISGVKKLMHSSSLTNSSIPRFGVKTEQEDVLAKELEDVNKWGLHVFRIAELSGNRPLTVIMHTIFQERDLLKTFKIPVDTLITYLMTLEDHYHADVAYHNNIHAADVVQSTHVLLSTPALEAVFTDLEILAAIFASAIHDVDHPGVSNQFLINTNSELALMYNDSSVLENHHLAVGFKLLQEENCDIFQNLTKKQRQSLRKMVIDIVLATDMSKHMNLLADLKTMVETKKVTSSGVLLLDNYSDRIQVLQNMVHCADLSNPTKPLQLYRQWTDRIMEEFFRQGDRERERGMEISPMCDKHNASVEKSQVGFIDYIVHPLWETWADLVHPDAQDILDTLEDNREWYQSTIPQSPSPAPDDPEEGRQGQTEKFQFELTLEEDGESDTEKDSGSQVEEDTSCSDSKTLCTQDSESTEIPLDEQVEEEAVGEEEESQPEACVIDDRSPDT
Protocol: Here, a kinetic assay of cAMP hydrolysis by purified PDE4 was used, in which PDE4 activity was measured by coupling the formation of the PDE4 reaction product, 5′-adenosine monophosphate, to the oxidation of reduced nicotinamide adenine dinucleotide (NADH) by the use of three coupling enzymes (myokinase, pyruvate kinase and lactate dehydrogenase), which allows fluorescent determination of reaction rates. Assays are performed in 96-well plates in a total volume of 200 μl/well. Compounds are dissolved in dimethylsulfoxide (DMSO) and added to plates in a volume of 10 μl followed by addition of 165 μl of assay mix. Plates are pre-incubated at 25° C. for 15 min and the reactions are initiated by the addition of 25 μl of cAMP followed by thorough mixing. […] Initial rates (slopes) are determined from linear portions of the progress curves. Final concentrations of assay components are as follows: 50 mM Tris, pH 8, 10 mM MgCl2, 50 mM KCl, 2% DMSO, 5 mM tris(2-carboxyethyl)phosphine (TCEP), 0.4 mM phosphenolpyruvate (PEP), 0.01 mM NADH, 0.04 mM adenosine triphosphate (ATP), 0.004 mM cAMP, 7.5 units myokinase from yeast, 1.6 units pyruvate kinase, 2 units lactate dehydrogenase, and either 0.5 nM human PDE4D7 or 10 nM human PDE4B1. All data are percent normalized relative to controls and are presented as percent inhibition. […] Human PDE4D7 contained a mutation of serine 54 to aspartic acid to mimic activation by cAMP-dependent protein kinase A (PKA).
PDE4D7*=PDE4D7 containing a UCR1 activating mutation S54D.

SMILES | IC50 [1] [nM] | IC50 [nM]
O=C(O)Cc1ccc(Cc2cc(C(F)(F)F)nc(OC3CCCC3)n2)cc1 [Example 200, 2-(4-((2-(Cyclopentyloxy)-6-(trifluoromethyl)pyrimidin-4-yl)methyl)phenyl)acetic acid] | > 1000 | 
NC(=O)Cc1ccc(Cc2cc(C(F)(F)F)nc(OC3CCCC3)n2)cc1 [Example 201, 2-(4-((2-(Cyclopentyloxy)-6-(trifluoromethyl)pyrimidin-4-yl)methyl)phenyl)acetamide] | > 1000 | 
OCCc1ccc(Cc2cc(C(F)(F)F)nc(OC3CCCC3)n2)cc1 [Example 202, 2-(4-((2-(Cyclopentyloxy)-6-(trifluoromethyl)pyrimidin-4-yl)methyl)phenyl)ethanol] | > 1000 | 
COC(=O)Cc1ccc(Cc2cc(C(F)(F)F)nc(-c3cccc(Cl)c3)n2)cc1 [Example 203, Methyl 2-(4-((2-(3-chlorophenyl)-6-(trifluoromethyl)pyrimidin-4-yl)methyl)phenyl)acetate] | > 1000 | 
NC(=O)Cc1ccc(Cc2cc(C(F)(F)F)nc(-c3cccc(Cl)c3)n2)cc1 [Example 204, 2-(4-((2-(3-Chlorophenyl)-6-(trifluoromethyl)pyrimidin-4-yl)methyl)phenyl)acetamide] | > 1000 | 
OCCc1ccc(Cc2cc(C(F)(F)F)nc(-c3cccc(Cl)c3)n2)cc1 [Example 205, 2-(4-((2-(3-Chlorophenyl)-6-(trifluoromethyl)pyrimidin-4-yl)methyl)phenyl)ethanol] | > 1000 | 
OCCc1ccc(Nc2cc(C3CC3)nc(-c3cccc(Cl)c3)n2)cc1 [Example 206, 2-(4-((2-(3-Chlorophenyl)-6-cyclopropylpyrimidin-4-yl)amino)phenyl)ethanol] | < 1000 | 
NC(=O)Cc1ccc(Nc2cc(C3CC3)nc(-c3cccc(Cl)c3)n2)cc1 [Example 207, 2-(4-((2-(3-Chlorophenyl)-6-cyclopropylpyrimidin-4-yl)amino)phenyl)acetamide] | < 1000 | 
COC(=O)Cc1ccc(Cc2cc(C3CC3)nc(-c3cccc(Cl)c3)n2)cc1 [Example 208, Methyl 2-(4-((2-(3-chlorophenyl)-6-cyclopropylpyrimidin-4-yl)methyl)phenyl)acetate] |  | > 1000
NC(=O)Cc1ccc(Cc2cc(C3CC3)nc(-c3cccc(Cl)c3)n2)cc1 [Example 209, 2-(4-((2-(3-chlorophenyl)-6-cyclopropylpyrimidin-4-yl)methyl)phenyl)acetamide] | > 1000 | 
OCCc1ccc(Cc2cc(C3CC3)nc(-c3cccc(Cl)c3)n2)cc1 [Example 210, 2-(4-((2-(3-Chlorophenyl)-6-cyclopropylpyrimidin-4-yl)methyl)phenyl)ethanol] | > 1000 | 
CCOC(=O)Cc1ccc(Nc2cc(C3CC3)nc(-c3cccc(Cl)c3)n2)nc1 [Example 211, Ethyl 2-(6-((2-(3-chlorophenyl)-6-cyclopropylpyrimidin-4-yl)amino)pyridin-3-yl)acetate] | > 1000 | 
NC(=O)Cc1ccc(Nc2cc(C3CC3)nc(-c3cccc(Cl)c3)n2)nc1 [Example 212, 2-(6-((2-(3-Chlorophenyl)-6-cyclopropylpyrimidin-4-yl)amino)pyridin-3-yl)acetamide] | > 1000 | 
O=C(O)Cc1ccc(Nc2cc(C3CC3)nc(-c3cccc(Cl)c3)n2)nc1 [Example 213, 2-(6-((2-(3-Chlorophenyl)-6-cyclopropylpyrimidin-4-yl)amino)pyridin-3-yl)acetic acid] | > 1000 | 
OCCc1ccc(Nc2cc(C3CC3)nc(-c3cccc(Cl)c3)n2)nc1 [Example 214] | > 1000 | 
O=C(Cc1ccc(Nc2cc(C3CC3)nc(-c3cccc(Cl)c3)n2)nc1)NCCO [Example 215, 2-(6-((2-(3-Chlorophenyl)-6-cyclopropylpyrimidin-4-yl)amino)pyridin-3-yl)-N-(2-hydroxyethyl)acetamide] | < 1000 | 
NC(=O)Cc1ccc(Nc2nc(C3CCCC3)nc3c2CCC3)cc1 [Example 216, 2-(4-((2-Cyclopentyl-6,7-dihydro-5H-cyclopenta[d]pyrimidin-4-yl)amino)phenyl)acetamide] | < 1000 | 
OCCc1ccc(Nc2nc(C3CCCC3)nc3c2CCC3)cc1 [Example 217, 2-(4-((2-Cyclopentyl-6,7-dihydro-5H-cyclopenta[d]pyrimidin-4-yl)amino)phenyl)ethanol] | > 1000 | 
FC(F)(F)c1cc(Cc2ccc(Cn3cc(Cl)cn3)cc2)nc(-c2cccc(Cl)c2)n1 [Example 218, 4-(4-((4-Chloro-1H-pyrazol-1-yl)methyl)benzyl)-2-(3-chlorophenyl)-6-(trifluoromethyl)pyrimidine] | > 1000 | 
OCCc1ccc(Nc2cc(C(F)(F)F)nc(-c3cccc(Cl)c3)n2)cc1 [Example 219, 2-(4-((2-(3-Chlorophenyl)-6-(trifluoromethyl)pyrimidin-4-yl)amino)phenyl)ethanol] | > 1000 | 
NC(=O)Cc1ccc(Nc2cc(C(F)(F)F)nc(-c3cccc(Cl)c3)n2)cc1 [Example 220, 2-(4-((2-(3-Chlorophenyl)-6-(trifluoromethyl)pyrimidin-4-yl)amino)phenyl)acetamide] | < 1000 | 
CCc1cc(Nc2ccc(CC(N)=O)cc2)nc(C2CCCC2)n1 [Example 221, 2-(4-((2-Cyclopentyl-6-ethylpyrimidin-4-yl)amino)phenyl)acetamide] | < 1000 | 

SMILES | IC50 [1] [nM] | IC50 [nM]
CCc1cc(Nc2ccc(CCO)cc2)nc(C2CCCC2)n1 [Example 222, 2-(4-((2-Cyclopentyl-6-ethylpyrimidin-4-yl)amino)phenyl)ethanol] | < 1000 | 
CCc1cc(Cc2ccc(CC(=O)OC)cc2)nc(C2CCCC2)n1 [Example 223, Methyl 2-(4-((2-cyclopentyl-6-ethylpyrimidin-4-yl)methyl)phenyl)acetate] | > 1000 | 
CCc1cc(Cc2ccc(CC(=O)O)cc2)nc(C2CCCC2)n1 [Example 224, 2-(4-((2-Cyclopentyl-6-ethylpyrimidin-4-yl)methyl)phenyl)acetic acid] | > 1000 | 
CCc1cc(Cc2ccc(CCO)cc2)nc(C2CCCC2)n1 [Example 225, 2-(4-((2-Cyclopentyl-6-ethylpyrimidin-4-yl)methyl)phenyl)ethanol] | > 1000 | 
CCc1cc(Cc2ccc(CC(N)=O)cc2)nc(C2CCCC2)n1 [Example 226, 2-(4-((2-Cyclopentyl-6-ethylpyrimidin-4-yl)methyl)phenyl)acetamide] | < 1000 | 
OCCc1ccc(Nc2cc(C(F)(F)F)nc(C3CCCC3)n2)cc1 [Example 227, 2-(4-((2-Cyclopentyl-6-(trifluoromethyl)pyrimidin-4-yl)amino)phenyl)ethanol] | < 1000 | 
NC(=O)Cc1ccc(Nc2cc(C(F)(F)F)nc(C3CCCC3)n2)cc1 [Example 228, 2-(4-((2-Cyclopentyl-6-(trifluoromethyl)pyrimidin-4-yl)amino)phenyl)acetamide] | < 1000 | 
O=C(O)Cc1ccc(Cc2cc(C(F)(F)F)nc(C3CCCC3)n2)cc1 [Example 229, 2-(4-((2-Cyclopentyl-6-(trifluoromethyl)pyrimidin-4-yl)methyl)phenyl)acetic acid] | > 1000 | 
NC(=O)Cc1ccc(Cc2cc(C(F)(F)F)nc(C3CCCC3)n2)cc1 [Example 230, 2-(4-((2-Cyclopentyl-6-(trifluoromethyl)pyrimidin-4-yl)methyl)phenyl)acetamide] | > 1000 | 
OCCc1ccc(Cc2cc(C(F)(F)F)nc(C3CCCC3)n2)cc1 [Example 231, 2-(4-((2-Cyclopentyl-6-(trifluoromethyl)pyrimidin-4-yl)methyl)phenyl)ethanol] | > 1000 | 
NC(=O)Cc1ccc(Nc2nc(OC3CCCC3)nc3c2CCC3)cc1 [Example 232, 2-(4-((2-(Cyclopentyloxy)-6,7-dihydro-5H-cyclopenta[d]pyrimidin-4-yl)amino)phenyl)acetamide] | > 1000 | 
OCCc1ccc(Nc2nc(OC3CCCC3)nc3c2CCC3)cc1 [Example 233, 2 2-(4-((2-(Cyclopentyloxy)-6,7-dihydro-5H-cyclopenta[d]pyrimidin-4-yl)amino)phenyl)ethanol] | > 1000 | 
NC(=O)Cc1ccc(Nc2nc(-c3cccc(Cl)c3)nc3c2CCCC3)cc1 [Example 234, 2-(4-((2-(3-Chlorophenyl)-5,6,7,8-tetrahydroquinazolin-4-yl)amino)phenyl)acetamide] | < 1000 | 
OCCc1ccc(Nc2nc(-c3cccc(Cl)c3)nc3c2CCCC3)cc1 [Example 235, 2-(4-((2-(3-Chlorophenyl)-5,6,7,8-tetrahydroquinazolin-4-yl)amino)phenyl)ethanol] | < 1000 | 
NC(=O)Cc1ccc(Nc2cc(N3CCCC3)nc3c2CCC3)cc1 [Example 236, 2-(4-((2-(Pyrrolidin-1-yl)-6,7-dihydro-5H-cyclopenta[b]pyridin-4-yl)amino)phenyl)acetamide hydrochloride] | > 1000 | 
COC(=O)Cc1ccc(Nc2cc(N3CCCC3)nc3c2CCC3)cc1 [Example 237, Methyl 2-(4-((2-(pyrrolidin-1-yl)-6,7-dihydro-5H-cyclopenta[b]pyridin-4-yl)amino)phenyl)acetate hydrochloride] | > 1000 | 
OCCc1ccc(Nc2cc(N3CCNCC3)nc3c2CCC3)cc1 [Example 238, 2-(4-((2-(Piperazin-1-yl)-6,7-dihydro-5H-cyclopenta[b]pyridin-4-yl)amino)phenyl)ethanol hydrochloride] | > 1000 | 
OCCc1ccc(Nc2cc(-c3ccco3)nc3c2CCC3)cc1 [Example 239, 2-(4-((2-(furan-2-yl)-6,7-dihydro-5H-cyclopenta[b]pyridin-4-yl)amino)phenyl)ethanol hydrochloride] | > 1000 | 
NC(=O)Cc1ccc(Nc2cc(-c3ccco3)nc3c2CCC3)cc1 [Example 240, 2-(4-((2-(Furan-2-yl)-6,7-dihydro-5H-cyclopenta[b]pyridin-4-yl)amino)phenyl)acetamide hydrochloride] | > 1000 | 
OCCc1ccc(Nc2cc(-c3ncco3)nc3c2CCC3)cc1 [Example 241, 2-(4-((2-(Oxazol-2-yl)-6,7-dihydro-5H-cyclopenta[b]pyridin-4-yl)amino)phenyl)ethanol] | > 1000 | 
NC(=O)Cc1ccc(Nc2cc(-c3ncco3)nc3c2CCC3)cc1 [Example 242, 2-(4-((2-(Oxazol-2-yl)-6,7-dihydro-5H-cyclopenta[b]pyridin-4-yl)amino)phenyl)acetamide] | > 1000 | 
